Here are results for 28 compounds from patent US10766869B2, “Triazoles for the treatment of demyelinating dieases” (Vertex Pharmaceuticals Incorporated, priority 2015, dated 2020).

This experiment has as its system primary rat mixed cortical cells. Briefly: In vitro myelination assay (MBP positive myelin strands, fold myelin pixels above background). The format is cell-based. The settings on record: Rattus norvegicus, relative to baseline of no added compound, read-out: Fold myelin pixels above background; for fold induction at 1 µM: 1.0 μM compound; for fold induction at 10 µM: 10.0 μM compound. Summed up: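 Fourteen-day treatment of primary P1 rat mixed cortical cultures, re-dosed at days 6 and 10, at 1.0 μM and 10.0 μM. MBP immunofluorescence was imaged at 10× and myelin strands quantified by software, normalised to untreated wells as fold above background.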

Bounds are passed on as bounds.

In the case of `Cc1cc(Nc2ncn(-c3ccc(Cl)c(F)c3)n2)nc(N2CCN(C3COC3)CC2)c1` [Compound 749, N-[1-(4-chloro-3-fluoro-phenyl)-1,2,4-triazol-3-yl]-4-methyl-6-[4-(oxetan-3-yl)piperazin-1-yl]pyridin-2-amine], the fold induction at 1 µM lay in the range of 10 to 100 and the fold induction at 10 µM lay in the range of 10 to 100.

Take `Cc1cc(Nc2ncn(-c3cc(F)cc(F)c3)n2)cc(O[C@H]2C[C@H](N3CCOCC3)C2)c1` [Compound 752, 1-(3,5-difluorophenyl)-N-[3-methyl-5-(3-morpholinocyclobutoxy)phenyl]-1,2,4-triazol-3-amine]: the fold induction at 1 µM fell in the range of 10 to 100 and the fold induction at 10 µM lay in the range of 1 to 10.

As for `Clc1cc(Nc2ncn(-c3cnccn3)n2)cc(N2CC(N3CCOCC3)C2)c1` [Compound 753, N-[3-chloro-5-(3-morpholinoazetidin-1-yl)phenyl]-1-pyrazin-2-yl-1,2,4-triazol-3-amine], the fold induction at 1 µM lay in the range of 10 to 100 and the fold induction at 10 µM was 100 to 1000.

In the case of `COc1cc(Nc2ncn(-c3cc(F)cc(C(F)(F)F)c3)n2)cc(N2CCN(C3COC3)CC2)c1` [Compound 754, 1-[3-fluoro-5-(trifluoromethyl)phenyl]-N-[3-methoxy-5-[4-(oxetan-3-yl)piperazin-1-yl]phenyl]-1,2,4-triazol-3-amine], the fold induction at 1 µM was 10 to 100 and the fold induction at 10 µM fell in the range of 1 to 10.

As to `Cc1cc(Nc2ncn(-c3cc(F)cc(F)c3)n2)nc(N2CCCC(O)C2)c1` (centres unmarked) [Compound 755, 1-[6-[[1-(3,5-difluorophenyl)-1,2,4-triazol-3-yl]amino]-4-methyl-2-pyridyl]piperidin-3-ol], the fold induction at 1 µM is 1 to 10 and the fold induction at 10 µM was in the range of 10 to 100.

Turning to `FC(F)c1cccc(-n2cnc(Nc3cc(C(F)F)cc(N4CC(N5CCOCC5)C4)n3)n2)c1` [Compound 756, 4-(difluoromethyl)-N-[1-[3-(difluoromethyl)phenyl]-1,2,4-triazol-3-yl]-6-(3-morpholinoazetidin-1-yl)pyridin-2-amine], the fold induction at 1 µM lay in the range of 1 to 10 and the fold induction at 10 µM was 10 to 100.

On to `Cc1cc(Nc2ncn(-c3cc(F)cc(C(F)(F)F)c3)n2)cc(N2CCN(C3COC3)CC2)c1` [Compound 757, 1-[3-fluoro-5-(trifluoromethyl)phenyl]-N-[3-methyl-5-[4-(oxetan-3-yl)piperazin-1-yl]phenyl]-1,2,4-triazol-3-amine], for which the fold induction at 1 µM is 10 to 100 and the fold induction at 10 µM was 10 to 100.

`COc1cc(Nc2ncn(-c3ccc(Cl)c(F)c3)n2)nc(N2CCN(C3COC3)CC2)c1` [Compound 758, N-[1-(4-chloro-3-fluoro-phenyl)-1,2,4-triazol-3-yl]-4-methoxy-6-[4-(oxetan-3-yl)piperazin-1-yl]pyridin-2-amine]: the fold induction at 1 µM lay within 10 to 100 and the fold induction at 10 µM lay in the range of 10 to 100.

For the compound `Cc1cc(Nc2ncn(-c3cccc(C#N)c3)n2)cc(N2CCN(C3COC3)CC2)c1` [Compound 759, 3-[3-[3-methyl-5-[4-(oxetan-3-yl)piperazin-1-yl]anilino]-1,2,4-triazol-1-yl]benzonitrile], the fold induction at 1 µM fell in the range of 1 to 10 and the fold induction at 10 µM was in the range of 1 to 10.

Take `Fc1cc(F)cc(-n2cnc(Nc3cc(N4CCN(C5COC5)CC4)nc(C(F)(F)F)c3)n2)c1` [Compound 760, N-[1-(3,5-difluorophenyl)-1,2,4-triazol-3-yl]-2-[4-(oxetan-3-yl)piperazin-1-yl]-6-(trifluoromethyl)pyridin-4-amine]: the fold induction at 1 µM fell in the range of 1 to 10 and the fold induction at 10 µM is at most 1.

`CCc1cc(Nc2ncn(-c3ccc(C)c(F)c3)n2)cc(N2CCN(C3COC3)CC2)c1` [Compound 761, N-[3-ethyl-5-[4-(oxetan-3-yl)piperazin-1-yl]phenyl]-1-(3-fluoro-4-methyl-phenyl)-1,2,4-triazol-3-amine]: the fold induction at 1 µM is 1 to 10 and the fold induction at 10 µM was at most 1.

Turning to `CCc1cc(Nc2ncn(-c3ccc(C#N)cc3)n2)cc(N2CCN(C3COC3)CC2)c1` [Compound 762, 4-[3-[3-ethyl-5-[4-(oxetan-3-yl)piperazin-1-yl]anilino]-1,2,4-triazol-1-yl]benzonitrile], the fold induction at 1 µM was at most 1 and the fold induction at 10 µM is at most 1.

For the compound `N#Cc1cc(Nc2ncn(-c3cccnc3)n2)cc(N2CCOCC2)c1` [Compound 763, 3-morpholino-5-[[1-(3-pyridyl)-1,2,4-triazol-3-yl]amino]benzonitrile], the fold induction at 1 µM was in the range of 10 to 100 and the fold induction at 10 µM was 10 to 100.

On to `COC1CCCN(c2cc(C)cc(Nc3ncn(-c4cc(F)cc(F)c4)n3)n2)C1` (centres unmarked) [Compound 764, N-[1-(3,5-difluorophenyl)-1,2,4-triazol-3-yl]-6-(3-methoxy-1-piperidyl)-4-methyl-pyridin-2-amine], for which the fold induction at 1 µM is 1 to 10 and the fold induction at 10 µM lay in the range of 1 to 10.

On to `Cc1cc(Nc2ncn(-c3cc(F)cc(F)c3)n2)c(F)c(NC2CCOC2)c1` (centres unmarked) [Compound 765, N3-[1-(3,5-difluorophenyl)-1,2,4-triazol-3-yl]-2-fluoro-5-methyl-N1-tetrahydrofuran-3-yl-benzene-1,3-diamine], for which the fold induction at 1 µM was 10 to 100 and the fold induction at 10 µM lay within 1 to 10.

For the compound `COCCNc1cc(F)cc(-n2cnc(Nc3cc(C)cc(N4CC(F)C4)c3)n2)c1` [Compound 766, N-[3-(3-fluoroazetidin-1-yl)-5-methyl-phenyl]-1-[3-fluoro-5-(2-methoxyethylamino)phenyl]-1,2,4-triazol-3-amine], the fold induction at 1 µM is 1 to 10 and the fold induction at 10 µM was at most 1.

With `Cc1cc(Nc2ncn(-c3ccc(C)c(Cl)c3)n2)cc(N2CCN(C3COC3)CC2)c1` [Compound 767, 1-(3-chloro-4-methyl-phenyl)-N-[3-methyl-5-[4-(oxetan-3-yl)piperazin-1-yl]phenyl]-1,2,4-triazol-3-amine], the fold induction at 1 µM fell in the range of 1 to 10 and the fold induction at 10 µM is 10 to 100.

With `Cc1cc(Nc2ncn(-c3cccc(C(F)F)c3)n2)nc(N2CC(N3CCOCC3)C2)c1` [Compound 768, N-[1-[3-(difluoromethyl)phenyl]-1,2,4-triazol-3-yl]-4-methyl-6-(3-morpholinoazetidin-1-yl)pyridin-2-amine], the fold induction at 1 µM is at most 1 and the fold induction at 10 µM fell in the range of 1 to 10.

Turning to `Cc1cc(C#CC2CC2)cc(Nc2ncn(-c3cccc(F)c3)n2)c1` [Compound 769, N-[3-(2-cyclopropylethynyl)-5-methyl-phenyl]-1-(3-fluorophenyl)-1,2,4-triazol-3-amine], the fold induction at 1 µM fell in the range of 1 to 10 and the fold induction at 10 µM is at most 1.

`Fc1ccc(-n2cnc(Nc3cc(C(F)(F)F)cc(N4CCOCC4)n3)n2)cc1F` [Compound 770, N-[1-(3,4-difluorophenyl)-1,2,4-triazol-3-yl]-6-morpholino-4-(trifluoromethyl)pyridin-2-amine]: the fold induction at 1 µM was 10 to 100 and the fold induction at 10 µM lay in the range of 10 to 100.

For the compound `Cc1cc(Nc2ncn(-c3cc(F)cc(F)c3)n2)cc(N2CCN(C)C(C)(C)C2)c1` [Compound 771, 1-(3,5-difluorophenyl)-N-[3-methyl-5-(3,3,4-trimethylpiperazin-1-yl)phenyl]-1,2,4-triazol-3-amine], the fold induction at 1 µM was in the range of 10 to 100 and the fold induction at 10 µM is at most 1.

On to `Cc1cc(Nc2ncn(-c3cc(F)cc(F)c3)n2)cc(N2CCC(N3CCN(C)CC3)CC2)c1` [Compound 772, 1-(3,5-difluorophenyl)-N-[3-methyl-5-[4-(4-methylpiperazin-1-yl)-1-piperidyl]phenyl]-1,2,4-triazol-3-amine], for which the fold induction at 1 µM lay in the range of 1 to 10 and the fold induction at 10 µM is at most 1.

On to `Cc1cc(Nc2ncn(-c3cc(F)cc(F)c3)n2)cc(N2CC(C(=O)N3CCCC3)C2)c1` [Compound 773, [1-[3-[[1-(3,5-difluorophenyl)-1,2,4-triazol-3-yl]amino]-5-methyl-phenyl]azetidin-3-yl]-pyrrolidin-1-yl-methanone], for which the fold induction at 1 µM was in the range of 10 to 100 and the fold induction at 10 µM is at most 1.

In the case of `Cc1cc(Nc2ncn(-c3cc(F)cc(F)c3)n2)nc(C2=CCOCC2)c1` [Compound 774, N-[1-(3,5-difluorophenyl)-1,2,4-triazol-3-yl]-6-(3,6-dihydro-2H-pyran-4-yl)-4-methyl-pyridin-2-amine], the fold induction at 1 µM fell in the range of 1 to 10 and the fold induction at 10 µM is 10 to 100.

With `OC1(c2cc(F)cc(Nc3ncn(-c4cc(F)cc(F)c4)n3)c2)COC1` [Compound 775, 3-[3-[[1-(3,5-difluorophenyl)-1,2,4-triazol-3-yl]amino]-5-fluoro-phenyl]oxetan-3-ol], the fold induction at 1 µM is 1 to 10 and the fold induction at 10 µM is 10 to 100.

On to `Cc1cc(Nc2ncn(-c3ccnc(F)c3)n2)cc(N2CCCN(C3COC3)CC2)c1` [Compound 776, 1-(2-fluoro-4-pyridyl)-N-[3-methyl-5-[4-(oxetan-3-yl)-1,4-diazepan-1-yl]phenyl]-1,2,4-triazol-3-amine], for which the fold induction at 1 µM fell in the range of 10 to 100 and the fold induction at 10 µM was at most 1.

As for `Fc1cc(F)cc(-n2cnc(Nc3cc(C(F)F)cc(N4CCCC5(COC5)C4)n3)n2)c1` [Compound 777, 4-(difluoromethyl)-N-[1-(3,5-difluorophenyl)-1,2,4-triazol-3-yl]-6-(2-oxa-8-azaspiro[3.5]nonan-8-yl)pyridin-2-amine], the fold induction at 1 µM is 1 to 10 and the fold induction at 10 µM fell in the range of 10 to 100.

On to `Cc1cc(Nc2ncn(-c3ccc(F)c(F)c3)n2)cc(OC2CCOC2)c1` (centres unmarked) [Compound 778, 1-(3,4-difluorophenyl)-N-(3-methyl-5-tetrahydrofuran-3-yloxy-phenyl)-1,2,4-triazol-3-amine], for which the fold induction at 1 µM lay within 10 to 100 and the fold induction at 10 µM lay within 1 to 10.
